We go through one compound from PMC5218480 (PLoS ONE, 2017).

The test system of this test is MV-4-11 cells. The test can be described thus: Gene expression microarray analysis (Affymetrix PrimeView) and GSEA. To be noted: MV-4-11 cells, 48 hours. The class given is cell-based, human. More on the design: RFU PODN (11730768_x_at) / Fold change /veh PODN (11730768_x_at) / RFU LINC00158 (11744669_a_at) / Fold change /veh LINC00158 (11744669_a_at) / RFU DUSP10 (11751237_a_at) / Fold change /veh DUSP10 (11751237_a_at) / RFU ID3 (11757404_x_at) / Fold change /veh ID3 (11757404_x_at) / RFU PLEKHG5 (11737974_s_at) / Fold change /veh PLEKHG5 (11737974_s_at) / RFU LRRC4B (11730491_at) / Fold change /veh LRRC4B (11730491_at) / RFU GIMAP4 (11747438_a_at) / Fold change /veh GIMAP4 (11747438_a_at) / RFU KRT8 (11758183_x_at) / Fold change /veh KRT8 (11758183_x_at) / RFU CNN1 (11734310_a_at) / Fold change /veh CNN1 (11734310_a_at) / RFU VPS37D (11726825_at) / Fold change /veh VPS37D (11726825_at) / RFU C10orf10 (11716522_x_at) / Fold change /veh C10orf10 (11716522_x_at) / RFU KIR2DL2 /// KIR2DL4 /// KIR2DL5A /// KIR2DL5B /// KIR2DS1 /// KIR2DS2 /// KIR2DS3 /// KIR2DS4 /// KIR3DL3 /// KIR3DL3 /// KIR3DS1 (11738374_at) / Fold change /veh KIR2DL2 /// KIR2DL4 /// KIR2DL5A /// KIR2DL5B /// KIR2DS1 /// KIR2DS2 /// KIR2DS3 /// KIR2DS4 /// KIR3DL3 /// KIR3DL3 /// KIR3DS1 (11738374_at) / RFU C1QL1 (11718748_at) / Fold change /veh C1QL1 (11718748_at) / RFU TMPRSS4 (11747572_a_at) / Fold change /veh TMPRSS4 (11747572_a_at) / RFU HAMP (11756126_x_at) / Fold change /veh HAMP (11756126_x_at) / RFU RNFT2 (11725882_a_at) / Fold change /veh RNFT2 (11725882_a_at) / RFU NR4A2 (11747474_a_at) / Fold change /veh NR4A2 (11747474_a_at) / RFU ABCC12 (11746883_a_at) / Fold change /veh ABCC12 (11746883_a_at) / RFU TMEM136 (11760407_x_at) / Fold change /veh TMEM136 (11760407_x_at) / RFU CLDN22 /// WWC2 (11732394_at) / Fold change /veh CLDN22 /// WWC2 (11732394_at) / RFU HLA-DPB1 (11760878_x_at) / Fold change /veh HLA-DPB1 (11760878_x_at) / RFU SPINT1 (11716480_a_at) / Fold change /veh SPINT1 (11716480_a_at) / RFU GAP43 (11754022_s_at) / Fold change /veh GAP43 (11754022_s_at) / RFU A4GNT (11735810_at) / Fold change /veh A4GNT (11735810_at) / RFU PRB3 (11715151_x_at) / Fold change /veh PRB3 (11715151_x_at) / RFU TUBB4B (11761932_at) / Fold change /veh TUBB4B (11761932_at) / RFU CAPN14 (11732068_a_at) / Fold change /veh CAPN14 (11732068_a_at) / RFU TMCC2 (11721928_a_at) / Fold change /veh TMCC2 (11721928_a_at) / RFU IRGQ (11745062_a_at) / Fold change /veh IRGQ (11745062_a_at) / RFU FAM174B (11720279_a_at) / Fold change /veh FAM174B (11720279_a_at) / RFU TMPRSS4 (11748680_a_at) / Fold change /veh TMPRSS4 (11748680_a_at) / RFU FAM212B (11763350_a_at) / Fold change /veh FAM212B (11763350_a_at) / RFU PLEKHG5 (11743358_a_at) / Fold change /veh PLEKHG5 (11743358_a_at) / RFU ZSCAN30 (11745921_a_at) / Fold change /veh ZSCAN30 (11745921_a_at) / RFU CMKLR1 (11741424_a_at) / Fold change /veh CMKLR1 (11741424_a_at) / RFU LOC101060620 /// MAPK8IP1 (11723275_at) / Fold change /veh LOC101060620 /// MAPK8IP1 (11723275_at) / RFU SPTSSB (11747773_x_at) / Fold change /veh SPTSSB (11747773_x_at) / RFU PRSS12 (11739890_at) / Fold change /veh PRSS12 (11739890_at) / RFU BIN1 (11741810_x_at) / Fold change /veh BIN1 (11741810_x_at) / RFU WNT11 (11732464_a_at) / Fold change /veh WNT11 (11732464_a_at) / RFU C10orf10 (11716521_a_at) / Fold change /veh C10orf10 (11716521_a_at) / RFU C5orf56 (11738089_at) / Fold change /veh C5orf56 (11738089_at) / RFU CYB561 (11721691_x_at) / Fold change /veh CYB561 (11721691_x_at) / RFU ANKRD19P (11752326_a_at) / Fold change /veh ANKRD19P (11752326_a_at) / RFU OR2T12 /// OR2T33 /// OR2T8 (11738714_s_at) / Fold change /veh OR2T12 /// OR2T33 /// OR2T8 (11738714_s_at) / RFU VCAN (11748164_a_at) / Fold change /veh VCAN (11748164_a_at) / RFU JSRP1 (11732532_at) / Fold change /veh JSRP1 (11732532_at) / RFU KRTAP10-11 (11738290_x_at) / Fold change /veh KRTAP10-11 (11738290_x_at) / RFU MYO3A (11730013_a_at) / Fold change /veh MYO3A (11730013_a_at) / RFU EBF3 (11725865_a_at) / Fold change /veh EBF3 (11725865_a_at) / RFU CAMK2N1 (11719241_x_at) / Fold change /veh CAMK2N1 (11719241_x_at) / RFU C5orf56 (11738088_a_at) / Fold change /veh C5orf56 (11738088_a_at) / RFU OLFML3 (11715873_a_at) / Fold change /veh OLFML3 (11715873_a_at) / RFU LOC100653217 /// NTM (11731650_a_at) / Fold change /veh LOC100653217 /// NTM (11731650_a_at) / RFU MAPK11 (11762145_a_at) / Fold change /veh MAPK11 (11762145_a_at) / RFU FIZ1 (11724087_x_at) / Fold change /veh FIZ1 (11724087_x_at) / RFU OASL (11726364_x_at) / Fold change /veh OASL (11726364_x_at) / RFU SOX15 (11748057_x_at) / Fold change /veh SOX15 (11748057_x_at) / RFU CD79A (11719716_a_at) / Fold change /veh CD79A (11719716_a_at) / RFU HIST1H1D (11736915_at) / Fold change /veh HIST1H1D (11736915_at) / RFU CASKIN2 (11723855_a_at) / Fold change /veh CASKIN2 (11723855_a_at) / RFU LOC730098 (11760151_x_at) / Fold change /veh LOC730098 (11760151_x_at) / RFU OR4N2 (11742367_at) / Fold change /veh OR4N2 (11742367_at) / RFU PRRT2 (11749266_a_at) / Fold change /veh PRRT2 (11749266_a_at) / RFU SNX32 (11753110_a_at) / Fold change /veh SNX32 (11753110_a_at) / RFU CDHR5 (11726645_a_at) / Fold change /veh CDHR5 (11726645_a_at) / RFU RCAN1 (11760418_a_at) / Fold change /veh RCAN1 (11760418_a_at) / RFU FAM167A (11723789_a_at) / Fold change /veh FAM167A (11723789_a_at) / RFU FAM26E (11764081_at) / Fold change /veh FAM26E (11764081_at) / RFU ISYNA1 (11749810_s_at) / Fold change /veh ISYNA1 (11749810_s_at) / RFU ACY1 (11761880_at) / Fold change /veh ACY1 (11761880_at) / RFU 11764098_at / Fold change /veh 11764098_at / RFU SAMD14 (11745864_x_at) / Fold change /veh SAMD14 (11745864_x_at) / RFU NPB (11741838_a_at) / Fold change /veh NPB (11741838_a_at) / RFU TMPRSS6 (11731388_a_at) / Fold change /veh TMPRSS6 (11731388_a_at) / RFU KRTAP10-2 (11738614_at) / Fold change /veh KRTAP10-2 (11738614_at) / RFU ARHGAP8 /// PRR5-ARHGAP8 (11727945_x_at) / Fold change /veh ARHGAP8 /// PRR5-ARHGAP8 (11727945_x_at) / RFU KRTAP5-7 /// NADSYN1 (11734609_at) / Fold change /veh KRTAP5-7 /// NADSYN1 (11734609_at) / RFU RASL12 (11751679_a_at) / Fold change /veh RASL12 (11751679_a_at) / RFU CDKN2B (11736163_a_at) / Fold change /veh CDKN2B (11736163_a_at) / RFU PRF1 (11729649_at) / Fold change /veh PRF1 (11729649_at) / RFU, ZNF638 /// ZNF638-IT1 / Fold change vs veh, ZNF638 /// ZNF638-IT1 / RFU, PANK3 / Fold change vs veh, PANK3 / RFU, SH3YL1 / Fold change vs veh, SH3YL1 / RFU, ZEB2 / Fold change vs veh, ZEB2 / RFU, NRIP1 / Fold change vs veh, NRIP1 / RFU, PTTG1IP / Fold change vs veh, PTTG1IP / RFU, CAPN2 / Fold change vs veh, CAPN2 / RFU, MED14 / Fold change vs veh, MED14 / RFU, SNORA58 / Fold change vs veh, SNORA58 / RFU, C1orf63 / Fold change vs veh, C1orf63 / RFU, LRRFIP1 / Fold change vs veh, LRRFIP1 / RFU, NDUFAF7 / Fold change vs veh, NDUFAF7 / RFU, SLC12A2 / Fold change vs veh, SLC12A2 / RFU, IBTK / Fold change vs veh, IBTK / RFU, ESF1 / Fold change vs veh, ESF1 / Fold change vs veh, TMEM50B / RFU, TAOK1 / Fold change vs veh, TAOK1 / RFU, ACBD3 / Fold change vs veh, ACBD3 / RFU, TMA16 / Fold change vs veh, TMA16 / RFU, RWDD3 / Fold change vs veh, RWDD3 / RFU, BCAT1 / Fold change vs veh, BCAT1 / RFU, EDEM3 / Fold change vs veh, EDEM3 / RFU, TMEM33 / Fold change vs veh, TMEM33 / RFU, WDR75 / Fold change vs veh, WDR75 / RFU, AHCTF1 / Fold change vs veh, AHCTF1 / RFU, TFRC / Fold change vs veh, TFRC / RFU, ZDHHC17 / Fold change vs veh, ZDHHC17 / RFU, NOM1 / Fold change vs veh, NOM1 / RFU, ARL8B / Fold change vs veh, ARL8B / RFU, ZBTB11 / Fold change vs veh, ZBTB11 / RFU, TAMM41 / Fold change vs veh, TAMM41 / RFU, KIAA1704 /// LOC100996395 / Fold change vs veh, KIAA1704 /// LOC100996395 / RFU, ING1 / Fold change vs veh, ING1 / RFU, TRMT61B / Fold change vs veh, TRMT61B / RFU, FUBP3 / Fold change vs veh, FUBP3 / RFU, TP53 / Fold change vs veh, TP53 / RFU, TNKS2 / Fold change vs veh, TNKS2 / RFU, ZFP14 / Fold change vs veh, ZFP14 / RFU, ACTR2 / Fold change vs veh, ACTR2 / RFU, PPP3R1 / Fold change vs veh, PPP3R1 / RFU, PIK3R1 / Fold change vs veh, PIK3R1 / RFU, HNRNPA1 / Fold change vs veh, HNRNPA1 / RFU, RNF170 / Fold change vs veh, RNF170 / RFU, ZNF28 / Fold change vs veh, ZNF28 / RFU, RNGTT / Fold change vs veh, RNGTT / RFU, OGT / Fold change vs veh, OGT / RFU, BRD1 / Fold change vs veh, BRD1 / RFU, MARS / Fold change vs veh, MARS / RFU, ZNF655 / Fold change vs veh, ZNF655 / RFU, FAHD1 / Fold change vs veh, FAHD1 / RFU, BDP1 / Fold change vs veh, BDP1 / RFU, LRRCC1 / Fold change vs veh, LRRCC1 / RFU, ARID1A / Fold change vs veh, ARID1A / RFU, ZNF146 / Fold change vs veh, ZNF146 / RFU, ZNF330 / Fold change vs veh, ZNF330 / RFU, GPN3 / Fold change vs veh, GPN3 / RFU, C9orf123 / Fold change vs veh, C9orf123 / RFU, N4BP2L2 / Fold change vs veh, N4BP2L2 / RFU, ARFIP1 / Fold change vs veh, ARFIP1 / RFU, FAM179B / Fold change vs veh, FAM179B / RFU, BCL10 / Fold change vs veh, BCL10 / RFU, UHRF1BP1L / Fold change vs veh, UHRF1BP1L / RFU, BET1 / Fold change vs veh, BET1 / RFU, CNOT2 / Fold change vs veh, CNOT2 / RFU, ZNF268 / Fold change vs veh, ZNF268 / Fold change vs veh, ZNF507 / RFU, DGCR2 / Fold change vs veh, DGCR2 / RFU, WDSUB1 / Fold change vs veh, WDSUB1 / Fold change vs veh, HSP90B1 /// MIR3652 / RFU, ADSS / Fold change vs veh, ADSS / RFU, GK / Fold change vs veh, GK / RFU, ZNF148 / Fold change vs veh, ZNF148 / RFU, TAF9 / Fold change vs veh, TAF9 / RFU, SLC1A5 / Fold change vs veh, SLC1A5 / RFU, SLMO2 / Fold change vs veh, SLMO2 / RFU, ABCC4 / Fold change vs veh, ABCC4 / RFU, LOC101060439 /// RAP1B / Fold change vs veh, LOC101060439 /// RAP1B / RFU, RFX7 / Fold change vs veh, RFX7 / RFU, GTPBP10 / Fold change vs veh, GTPBP10 / RFU, CNEP1R1 / Fold change vs veh, CNEP1R1 / RFU, BIVM-ERCC5 /// ERCC5 / Fold change vs veh, BIVM-ERCC5 /// ERCC5 / RFU, ILF3 / Fold change vs veh, ILF3 / RFU 11762660_at / Fold change /veh 11762660_at / RFU VCAN (11757783_s_at) / Fold change /veh VCAN (11757783_s_at) / RFU DDX43 (11728927_at) / Fold change /veh DDX43 (11728927_at) / RFU KRT8 (11758188_x_at) / Fold change /veh KRT8 (11758188_x_at) / RFU NKD1 (11759106_at) / Fold change /veh NKD1 (11759106_at) / RFU SRD5A1 (11742802_a_at) / Fold change /veh SRD5A1 (11742802_a_at) / RFU TPSAB1 /// TPSB2 (11721975_s_at) / Fold change /veh TPSAB1 /// TPSB2 (11721975_s_at) / RFU GSTM3 (11746129_a_at) / Fold change /veh GSTM3 (11746129_a_at) / RFU IL23R (11737362_x_at) / Fold change /veh IL23R (11737362_x_at) / RFU TMEM51 (11727254_a_at) / Fold change /veh TMEM51 (11727254_a_at) / RFU PIWIL2 (11732686_x_at) / Fold change /veh PIWIL2 (11732686_x_at) / RFU ORM1 (11744905_x_at) / Fold change /veh ORM1 (11744905_x_at) / RFU CCDC152 (11743942_at) / Fold change /veh CCDC152 (11743942_at) / RFU ECM1 (11717891_a_at) / Fold change /veh ECM1 (11717891_a_at) / RFU IL23R (11748794_a_at) / Fold change /veh IL23R (11748794_a_at) / RFU TNFAIP8L3 (11732012_x_at) / Fold change /veh TNFAIP8L3 (11732012_x_at) / RFU MBOAT4 (11741988_at) / Fold change /veh MBOAT4 (11741988_at) / RFU 11764193_at / Fold change /veh 11764193_at / RFU TMEM53 (11763286_at) / Fold change /veh TMEM53 (11763286_at) / RFU MAGEB2 (11727129_at) / Fold change /veh MAGEB2 (11727129_at) / RFU TMEM200A (11744735_a_at) / Fold change /veh TMEM200A (11744735_a_at) / RFU CCDC152 (11751479_a_at) / Fold change /veh CCDC152 (11751479_a_at) / RFU FAM211A (11726209_a_at) / Fold change /veh FAM211A (11726209_a_at) / RFU RGS16 (11746705_a_at) / Fold change /veh RGS16 (11746705_a_at) / RFU VCAN (11755009_s_at) / Fold change /veh VCAN (11755009_s_at) / RFU RHOB (11743442_s_at) / Fold change /veh RHOB (11743442_s_at) / RFU RGS16 (11720943_a_at) / Fold change /veh RGS16 (11720943_a_at) / RFU RGS16 (11720944_at) / Fold change /veh RGS16 (11720944_at) / RFU, VPS4B / Fold change vs veh, VPS4B / RFU, CREB1 / Fold change vs veh, CREB1 / RFU, DNAJC13 / Fold change vs veh, DNAJC13 / RFU, GNAQ / Fold change vs veh, GNAQ / RFU, CDK5R1 / Fold change vs veh, CDK5R1 / RFU, ZRANB3 / Fold change vs veh, ZRANB3 / RFU, CUL4A / Fold change vs veh, CUL4A / RFU, CCNY / Fold change vs veh, CCNY / RFU, UFL1 / Fold change vs veh, UFL1 / RFU, COG3 / Fold change vs veh, COG3 / RFU, DIAPH2 / Fold change vs veh, DIAPH2 / RFU, SKA2 / Fold change vs veh, SKA2 / RFU, AFF3 / Fold change vs veh, AFF3 / RFU, LMF1 / Fold change vs veh, LMF1 / RFU, IPO11 / Fold change vs veh, IPO11 / RFU, DFFB / Fold change vs veh, DFFB / RFU, FOXP1 / Fold change vs veh, FOXP1 / RFU, CARD8 / Fold change vs veh, CARD8 / RFU, STRN3 / Fold change vs veh, STRN3 / RFU, ADK / Fold change vs veh, ADK / RFU, RASSF2 / Fold change vs veh, RASSF2 / RFU, WIPF1 / Fold change vs veh, WIPF1 / RFU, LARP1B / Fold change vs veh, LARP1B / RFU, RASA1 / Fold change vs veh, RASA1 / RFU, RB1 / Fold change vs veh, RB1 / RFU, PPFIA1 / Fold change vs veh, PPFIA1 / RFU, MAT2A / Fold change vs veh, MAT2A / RFU, CCT5 / Fold change vs veh, CCT5 / RFU, WDR92 / Fold change vs veh, WDR92 / RFU, CUX1 / Fold change vs veh, CUX1 / RFU, TTC7A / Fold change vs veh, TTC7A / RFU, TMEM135 / Fold change vs veh, TMEM135 / RFU, DEPTOR / Fold change vs veh, DEPTOR / RFU, CPM / Fold change vs veh, CPM / RFU, DNAJB6 / Fold change vs veh, DNAJB6 / RFU, CACNA2D3 / Fold change vs veh, CACNA2D3 / RFU, DTX4 / Fold change vs veh, DTX4 / RFU, TFCP2 / Fold change vs veh, TFCP2 / RFU, GMCL1 /// GMCL1P1 / Fold change vs veh, GMCL1 /// GMCL1P1 / RFU, AEBP2 / Fold change vs veh, AEBP2 / RFU, SNHG1 /// SNORD22 /// SNORD25 /// SNORD26 /// SNORD27 /// SNORD28 /// SNORD29 /// SNORD31 / Fold change vs veh, SNHG1 /// SNORD22 /// SNORD25 /// SNORD26 /// SNORD27 /// SNORD28 /// SNORD29 /// SNORD31 / Fold change (Aza/veh), C12orf56 (ProbeSet 11735607_a_at) / Fold change (ACY-1035/veh), C12orf56 (ProbeSet 11735607_a_at) / Fold change (Aza/veh), FGFR1OP (ProbeSet 11751329_s_at) / Fold change (ACY-1035/veh), FGFR1OP (ProbeSet 11751329_s_at) / Fold change (Aza/veh), VPS36 (ProbeSet 11739960_a_at) / Fold change (ACY-1035/veh), VPS36 (ProbeSet 11739960_a_at) / RFU SYPL1 (11715823_x_at) / Fold change /veh SYPL1 (11715823_x_at) / RFU IGFBP7 (11715501_s_at) / Fold change /veh IGFBP7 (11715501_s_at) / RFU REEP3 (11722064_at) / Fold change /veh REEP3 (11722064_at) / RFU IGLL1 (11728026_x_at) / Fold change /veh IGLL1 (11728026_x_at): dose or concentration left out as unconfirmed.

As to `Nc1ccc(-c2cccs2)cc1NC(=O)c1ccc2c(c1)cc(C1CC1)n2CCN1CCOCC1` [ACY-1035], the “Fold change /veh NKD1 (11759106_at)” value is 1.08.
